Experimental data taken from patent publication US20120258940A1, “METHOD FOR TREATING HAEMATOLOGICAL CANCERS” (priority 2009, published 2012).

Columns and labels:
Assay type in all cases: cell-based
[1] = test system: multiple myeloma cell line OPM-2; assay: Cell viability (CellTiter GLO), FGFR inhibitor + glucocorticoid combination, OPM-2; conditions: for CI of Cpd. + 100 nM Dex: 72 hours; for Synergy Score: Loewe Additivity model
Experimental: (§1) Cell viability was measured by CellTiter GLO. For the combination treatments in FIGS. 1 and 2, the Y axes were cell viability was normalized to the wells treated with dexamethasone alone.
(§2) All FGFR inhibitors were desolved in DMSO as a 10 mM stock. Serial dilutions, as indicated in each figure, were made as 3× solutions in culture medium before adding to the cell cultures. Dexamethasone and halometasone were dissolved in 100% ethanol as a 10 millimol master stock. Serial dilutions, as indicated in each figure, were made as 3× solutions in culture medium. Cell lines, cell culture and treatment:
(§3) KMS-11 and OPM-2 cell lines can be purchased from HSRRB (Japan) and DSMZ (Germany), respectively. Early passage KMS-11 and OPM-2 cell lines were cultured in RPMI-1640 (ATCC Catalog#30-2001) supplemented with 10% FBS for 1 or 2 passages before treatment. Twenty thousand cells were seeded in each well of a 96-well plate and grew for 24 hours. Cells were then treated in triplicate with vehicle, an FGFR inhibitor (Compound A, B), a glucocorticoid (Dexamethasone or halometasone) alone or a combination at indicated concentrations in 5% CO2 at 37 C for 72 hours. Viability was determined by CellTiter GLO (Promega, Cat#G755B) using identical method as described by the manufacturer. Data analysis:
(§4) Raw CellTiter GLO relative […] unit (RFU) values were acquired using a microplate reader (PerkinElmer Precisely, Perkin Elmer Life and Analytical Sciences). Data analysis was performed using the Chalice software developed by CombinatoRx (Zalicus Inc., Cambridge, Mass., USA). Specifically, the Loewe Additivity (ADD) model was used as the combination reference in the EXAMPLES.

[2] = test system: multiple myeloma cell line KMS-11; assay: Cell viability (CellTiter GLO), FGFR inhibitor + glucocorticoid combination, KMS-11; conditions: for CI of Cpd. + 100 nM Dex: 72 hours; for Synergy Score: Loewe Additivity model
Experimental: as §1, §2, §3, §4

[3] = test system: multiple myeloma cell lines; assay: Inhibition of proliferation of multiple myeloma cell lines by combinations (cell line not specified); conditions: with Dexamethasone
Experimental: as §2, §3
Raw CellTiter GLO relative […] unit (RFU) values were acquired using a microplate reader (PerkinElmer Precisely, Perkin Elmer Life and Analytical Sciences). Data analysis was performed using the Chalice software developed by CombinatoRx (Zalicus Inc., Cambridge, Mass., USA). […]

[4] = Cpd. 0.0001 nM + 100 nM dexamethasone
[5] = Cpd. 0.001 nM + 100 nM dexamethasone
[6] = Cpd. 0.01 nM + 100 nM dexamethasone
[7] = Cpd. 0.1 nM + 100 nM dexamethasone
[8] = Cpd. 1 nM + 100 nM dexamethasone
[9] = Cpd. 10 nM + 100 nM dexamethasone
[10] = Cpd. 100 nM + 100 nM dexamethasone
[11] = Cpd. 1000 nM + 100 nM dexamethasone
[12] = Cpd. 10000 nM + 100 nM dexamethasone
[13] = in combination with Dexamethasone

CN1CCN(c2ccc3nc(-c4c(N)c5c(F)cccc5[nH]c4=O)[nH]c3c2)CC1 [Compound B, 4-amino-5-fluoro-3-[6-(4-methylpiperazin-yl)-1H-benzimidazol-2-yl]quinolin-2(1H)-one]
CI of Cpd. + 100 nM Dex [1, 4]: 1.64E+00 | CI of Cpd. + 100 nM Dex [1, 5]: 1.38E+00 | CI of Cpd. + 100 nM Dex [1, 6]: 1.17E+00 | CI of Cpd. + 100 nM Dex [1, 7]: 1.10E+00 | CI of Cpd. + 100 nM Dex [1, 8]: 1.00E+00 | CI of Cpd. + 100 nM Dex [1, 9]: 7.94E−01 | CI of Cpd. + 100 nM Dex [1, 10]: 1.86E−01 | CI of Cpd. + 100 nM Dex [1, 11]: 5.80E−02 | CI of Cpd. + 100 nM Dex [1, 12]: 1.00E−03 | Chemical 1 concentration in the combination at 50% growth inhibition [1, 13]: B (1.8) mM | Combination Index (CI) at 50% inhibition [1, 13]: 0.350 ± 0.010 | Synergy Score [1, 13]: 10 | Chemical 1 concentration in the combination at 50% growth inhibition ([1]; in combination with Sicorten): B (10) mM | Combination Index (CI) at 50% inhibition ([1]; in combination with Sicorten): 0.281 ± 0.005 | Synergy call ([1]; in combination with Sicorten): Strong | Synergy Score ([1]; in combination with Sicorten): 14 | Combination effect on cell viability (figure legend) ([1]; with Sicorten): synergistic effect | Combination effect on cell viability (figure legend) ([1]; with dexamethasone): synergistic effect | CI of Cpd. + 100 nM Dex [2, 4]: 2.71E−01 | CI of Cpd. + 100 nM Dex [2, 5]: 1.72E−01 | CI of Cpd. + 100 nM Dex [2, 6]: 1.73E−01 | CI of Cpd. + 100 nM Dex [2, 7]: 1.32E−01 | CI of Cpd. + 100 nM Dex [2, 8]: 1.23E−01 | CI of Cpd. + 100 nM Dex [2, 9]: 9.00E−03 | CI of Cpd. + 100 nM Dex [2, 10]: 1.00E−03 | CI of Cpd. + 100 nM Dex [2, 11]: 4.00E−03 | CI of Cpd. + 100 nM Dex [2, 12]: 3.00E−03 | Chemical 1 concentration in the combination at 50% growth inhibition [2, 13]: B (0.74) mM | Combination Index (CI) at 50% inhibition [2, 13]: 0.050 ± 0.004 | Synergy call [2, 13]: Very strong | Synergy Score [2, 13]: 18 | Chemical 1 concentration in the combination at 50% growth inhibition ([2]; in combination with Sicorten): B (0.45) mM | Combination Index (CI) at 50% inhibition ([2]; in combination with Sicorten): 0.371 ± 0.003 | Synergy Score ([2]; in combination with Sicorten): 4 | Combination effect on cell viability (figure legend) ([2]; with Sicorten): synergistic effect | Combination effect on cell viability (figure legend) ([2]; with dexamethasone): synergistic effect

CCN1CCN(c2ccc(Nc3cc(N(C)C(=O)Nc4c(Cl)c(OC)cc(OC)c4Cl)ncn3)cc2)CC1 [Compound A, 3-(2,6-dichloro-3,5-dimethoxy-phenyl)-1-{6-[4-(4-ethyl-perpazin-1-yl)-phenylamino]-pyrimidin-4-yl}-1-methyl urea]
CI of Cpd. + 100 nM Dex [1, 4]: 1.39E−01 | CI of Cpd. + 100 nM Dex [1, 5]: 5.00E−02 | CI of Cpd. + 100 nM Dex [1, 6]: 4.90E−02 | CI of Cpd. + 100 nM Dex [1, 7]: 1.50E−02 | CI of Cpd. + 100 nM Dex [1, 8]: 1.10E−02 | CI of Cpd. + 100 nM Dex [1, 9]: 3.00E−03 | CI of Cpd. + 100 nM Dex [1, 10]: 7.00E−03 | CI of Cpd. + 100 nM Dex [1, 11]: 5.90E−02 | CI of Cpd. + 100 nM Dex [1, 12]: 4.40E−02 | Chemical 1 concentration in the combination at 50% growth inhibition [1, 13]: A (0.03) mM | Combination Index (CI) at 50% inhibition [1, 13]: 0.034 ± 0.003 | Synergy call [1, 13]: Very strong | Synergy Score [1, 13]: 29 | Chemical 1 concentration in the combination at 50% growth inhibition ([1]; in combination with Sicorten): A (1.6) mM | Combination Index (CI) at 50% inhibition ([1]; in combination with Sicorten): 0.282 ± 0.007 | Synergy call ([1]; in combination with Sicorten): Strong | Synergy Score ([1]; in combination with Sicorten): 17 | Combination effect on cell viability (figure legend) ([1]; with Sicorten): synergistic effect | Combination effect on cell viability (figure legend) ([1]; with dexamethasone): synergistic effect | Reduction by Dexamethasone of the concentration required to achieve 50% of inhibition of proliferation [3]: at least a million fold | CI of Cpd. + 100 nM Dex [2, 4]: 6.10E−02 | CI of Cpd. + 100 nM Dex [2, 5]: 2.20E−02 | CI of Cpd. + 100 nM Dex [2, 6]: 9.00E−03 | CI of Cpd. + 100 nM Dex [2, 7]: 5.00E−03 | CI of Cpd. + 100 nM Dex [2, 8]: 1.00E−03 | CI of Cpd. + 100 nM Dex [2, 9]: 4.17E−05 | CI of Cpd. + 100 nM Dex [2, 10]: 1.25E−06 | CI of Cpd. + 100 nM Dex [2, 11]: 1.21E−06 | CI of Cpd. + 100 nM Dex [2, 12]: 1.43E−12 | Chemical 1 concentration in the combination at 50% growth inhibition [2, 13]: A (1.5) mM | Combination Index (CI) at 50% inhibition [2, 13]: 0.077 ± 0.001 | Synergy call [2, 13]: Very strong | Synergy Score [2, 13]: 35 | Chemical 1 concentration in the combination at 50% growth inhibition ([2]; in combination with Sicorten): A (4.2) mM | Combination Index (CI) at 50% inhibition ([2]; in combination with Sicorten): 0.220 ± 0.006 | Synergy call ([2]; in combination with Sicorten): Strong | Synergy Score ([2]; in combination with Sicorten): 10 | Combination effect on cell viability (figure legend) ([2]; with Sicorten): synergistic effect | Combination effect on cell viability (figure legend) ([2]; with dexamethasone): synergistic effect

C[C@@H]1C[C@H]2[C@@H]3C[C@H](F)C4=CC(=O)C(Cl)=C[C@]4(C)[C@@]3(F)[C@@H](O)C[C@]2(C)[C@@]1(O)C(=O)CO [Sicorten, halometasone, reference compound]
Chemical 2 concentration in the combination at 50% growth inhibition ([1]; in combination with Compound A): Sicorten (0.03) mM | Chemical 2 concentration in the combination at 50% growth inhibition ([1]; in combination with Compound B): Sicorten (0.02) mM | Chemical 2 concentration in the combination at 50% growth inhibition ([2]; in combination with Compound A): Sicorten (0.01) mM | Chemical 2 concentration in the combination at 50% growth inhibition ([2]; in combination with Compound B): Sicorten (0.02) mM

C[C@@H]1C[C@H]2[C@@H]3CCC4=CC(=O)C=C[C@]4(C)[C@@]3(F)[C@@H](O)C[C@]2(C)[C@@]1(O)C(=O)CO [Dexamethasone, reference compound]
Chemical 2 concentration in the combination at 50% growth inhibition ([1]; in combination with Compound A): (0.30) mM | Chemical 2 concentration in the combination at 50% growth inhibition ([1]; in combination with Compound B): (0.30) mM | Chemical 2 concentration in the combination at 50% growth inhibition ([2]; in combination with Compound A): (0.14) mM | Chemical 2 concentration in the combination at 50% growth inhibition ([2]; in combination with Compound B): (0.32) mM

CCN(CC)CCCCNc1ncc2cc(-c3cc(OC)cc(OC)c3)c(NC(=O)NC(C)(C)C)nc2n1 [Compound E, 1-tert-Butyl-3-[6-(3,5-dimethoxy-phenyl)-2-(4-diethylamino-butylamino)-pyrido[2,3-d]pyrimidin-7-yl]-urea, reference compound]
Combination effect on cell viability (figure legend) ([1]; with dexamethasone): synergistic effect | Combination effect on cell viability (figure legend) ([2]; with dexamethasone): synergistic effect
